Literature values in patent US20090325888A1, “Peptides having a health benefit and compositions comprising them” (priority 2005, published 2009).

How the values were obtained:
hypertensive humans = conditions: in sour milk, Hata 1996
ACE = ACE (Homo sapiens, UniProt P12821)
Sequence of ACE (P12821 30-1306, species assumed): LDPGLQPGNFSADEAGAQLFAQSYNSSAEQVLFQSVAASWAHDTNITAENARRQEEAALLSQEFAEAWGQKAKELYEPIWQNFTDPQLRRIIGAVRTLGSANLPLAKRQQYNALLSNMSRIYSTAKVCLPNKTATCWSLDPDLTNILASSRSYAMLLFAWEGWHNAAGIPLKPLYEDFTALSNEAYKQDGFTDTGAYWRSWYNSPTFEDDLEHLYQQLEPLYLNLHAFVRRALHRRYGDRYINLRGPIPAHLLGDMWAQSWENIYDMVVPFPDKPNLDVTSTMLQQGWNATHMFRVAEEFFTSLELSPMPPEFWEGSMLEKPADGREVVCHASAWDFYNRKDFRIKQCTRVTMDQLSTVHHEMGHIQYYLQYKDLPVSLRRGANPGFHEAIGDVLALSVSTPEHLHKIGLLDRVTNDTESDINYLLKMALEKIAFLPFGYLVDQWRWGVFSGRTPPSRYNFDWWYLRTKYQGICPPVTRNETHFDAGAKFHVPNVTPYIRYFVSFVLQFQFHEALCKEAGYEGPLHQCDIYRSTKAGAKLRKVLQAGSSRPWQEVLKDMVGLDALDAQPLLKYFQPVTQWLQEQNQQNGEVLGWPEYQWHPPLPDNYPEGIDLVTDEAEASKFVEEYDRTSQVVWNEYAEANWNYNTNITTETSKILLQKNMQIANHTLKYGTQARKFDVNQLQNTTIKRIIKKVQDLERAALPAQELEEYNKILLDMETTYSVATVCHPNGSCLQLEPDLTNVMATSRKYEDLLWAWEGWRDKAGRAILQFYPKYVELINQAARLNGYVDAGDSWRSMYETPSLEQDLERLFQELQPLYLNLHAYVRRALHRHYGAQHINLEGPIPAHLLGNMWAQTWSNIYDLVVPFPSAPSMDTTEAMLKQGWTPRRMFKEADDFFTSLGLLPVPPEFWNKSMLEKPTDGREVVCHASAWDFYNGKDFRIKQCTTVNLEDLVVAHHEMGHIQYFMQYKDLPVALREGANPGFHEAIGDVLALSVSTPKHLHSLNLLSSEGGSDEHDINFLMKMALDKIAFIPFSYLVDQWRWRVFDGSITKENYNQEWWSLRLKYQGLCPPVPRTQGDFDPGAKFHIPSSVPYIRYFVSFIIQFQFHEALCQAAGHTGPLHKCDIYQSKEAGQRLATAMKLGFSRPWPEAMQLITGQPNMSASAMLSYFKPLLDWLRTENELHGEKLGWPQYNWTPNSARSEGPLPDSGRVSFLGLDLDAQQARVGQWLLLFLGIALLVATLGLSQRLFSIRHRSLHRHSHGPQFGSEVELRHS

Compound | blood pressure lowering effect (hypertensive humans) | in vitro ACE inhibition (ACE; peptides in fermented milk products) | IC50 (ACE; Nakamura 1995, Aryoshi 1993, read-out: IC50 values reported earlier as ACEI peptides)
CC[C@H](C)[C@H](N)C(=O)N1CCC[C@H]1C(=O)N1CCC[C@H]1C(=O)O [IPP] | blood pressure lowering effect | in vitro ACE inhibition | –
LPP: known ACE inhibiting tripeptide, β-casein f151-153 (UniProt P02666 166-168, looked up, fragment) | – | – | 9.6 µM
